According to PubChem BioAssay AID2060908 (Molecular Pharmacology Branch, DTP, NCI, 2025):

Test system: 186277-243-T-J2-PDC complex spheroids, viability
Assay: Anticancer human tumor 186277-243-T-J2-PDC patient-derived colon adenocarcinoma cell line growth inhibition [RAS]
Details: for IC50: curve of first compound; for viability, T/C: stronger effect = lower value
Summary of the method: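 Agents were tested in combination matrices in half-log decrements from a top concentration at or near clinical Cmax (10 microM if undetermined). Targets were multi-cell spheroids of tumour lines plus HUVEC and MSC stromal cells.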

[1] = second compound 0.0316 µM, first compound 0.0316 µM
[2] = second compound 0.0316 µM, first compound 0.1 µM
[3] = second compound 0.0316 µM, first compound 0.316 µM
[4] = second compound 0.0316 µM, first compound 1 µM
[5] = second compound 0.1 µM, first compound 0.0316 µM
[6] = second compound 0.1 µM, first compound 0.1 µM
[7] = second compound 0.1 µM, first compound 0.316 µM
[8] = second compound 0.1 µM, first compound 1 µM
[9] = second compound 0.316 µM, first compound 0.0316 µM
[10] = second compound 0.316 µM, first compound 0.1 µM
[11] = second compound 0.316 µM, first compound 0.316 µM
[12] = second compound 0.316 µM, first compound 1 µM
[13] = second compound 1 µM, first compound 0.0316 µM
[14] = second compound 1 µM, first compound 0.1 µM
[15] = second compound 1 µM, first compound 0.316 µM
[16] = second compound 1 µM, first compound 1 µM
[17] = second compound 3.16 µM, first compound 0.0316 µM
[18] = second compound 3.16 µM, first compound 0.1 µM
[19] = second compound 3.16 µM, first compound 0.316 µM
[20] = second compound 3.16 µM, first compound 1 µM
[21] = second compound 10 µM, first compound 0.0316 µM
[22] = second compound 10 µM, first compound 0.1 µM
[23] = second compound 10 µM, first compound 0.316 µM
[24] = second compound 10 µM, first compound 1 µM
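Note: spheroids exposed to compounds for 7 days before viability read.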

## CC1(C)CCC(Nc2ncc(C(F)(F)F)c(-c3c[nH]c4c(P(C)(C)=O)c(C#N)ccc34)n2)CN1 (stereo unspecified) + CCn1c(-c2cc(N3CCN(C)CC3)cnc2C(C)OC)c2c3cc(ccc31)-c1csc(n1)CC(NC(=O)C1CC1C)C(=O)N1CCCC(N1)C(=O)OCC(C)(C)C2
Second compound 0.000949 µM
  IC50: 95.3 nM
Second compound 0.003 µM
  IC50: 44.3 nM
Second compound 0.00949 µM
  IC50: < 0.949 nM
Second compound 0.03 µM
  IC50: < 0.949 nM
Second compound 0.0949 µM
  IC50: < 0.949 nM
Second compound 0.3 µM
  IC50: < 0.949 nM
Second compound 0.000949 µM, first compound 0.000949 µM
  viability, T/C: 103%
Second compound 0.000949 µM, first compound 0.003 µM
  viability, T/C: 104%
Second compound 0.000949 µM, first compound 0.00949 µM
  viability, T/C: 88%
Second compound 0.000949 µM, first compound 0.03 µM
  viability, T/C: 68.5%
Second compound 0.000949 µM, first compound 0.0949 µM
  viability, T/C: 49.8%
Second compound 0.000949 µM, first compound 0.3 µM
  viability, T/C: 43.3%
Second compound 0.003 µM, first compound 0.000949 µM
  viability, T/C: 96.8%
Second compound 0.003 µM, first compound 0.003 µM
  viability, T/C: 80.2%
Second compound 0.003 µM, first compound 0.00949 µM
  viability, T/C: 82.1%
Second compound 0.003 µM, first compound 0.03 µM
  viability, T/C: 55.1%
Second compound 0.003 µM, first compound 0.0949 µM
  viability, T/C: 37.4%
Second compound 0.003 µM, first compound 0.3 µM
  viability, T/C: 31.4%
Second compound 0.00949 µM, first compound 0.000949 µM
  viability, T/C: 48.1%
Second compound 0.00949 µM, first compound 0.003 µM
  viability, T/C: 42.9%
Second compound 0.00949 µM, first compound 0.00949 µM
  viability, T/C: 31.9%
Second compound 0.00949 µM, first compound 0.03 µM
  viability, T/C: 22.6%
Second compound 0.00949 µM, first compound 0.0949 µM
  viability, T/C: 18.2%
Second compound 0.00949 µM, first compound 0.3 µM
  viability, T/C: 18.2%
Second compound 0.03 µM, first compound 0.000949 µM
  viability, T/C: 14.1%
Second compound 0.03 µM, first compound 0.003 µM
  viability, T/C: 14%
Second compound 0.03 µM, first compound 0.00949 µM
  viability, T/C: 10.6%
Second compound 0.03 µM, first compound 0.03 µM
  viability, T/C: 9.74%
Second compound 0.03 µM, first compound 0.0949 µM
  viability, T/C: 10.6%
Second compound 0.03 µM, first compound 0.3 µM
  viability, T/C: 8.92%
Second compound 0.0949 µM, first compound 0.000949 µM
  viability, T/C: 7.13%
Second compound 0.0949 µM, first compound 0.003 µM
  viability, T/C: 6.88%
Second compound 0.0949 µM, first compound 0.00949 µM
  viability, T/C: 5.95%
Second compound 0.0949 µM, first compound 0.03 µM
  viability, T/C: 5.82%
Second compound 0.0949 µM, first compound 0.0949 µM
  viability, T/C: 6.47%
Second compound 0.0949 µM, first compound 0.3 µM
  viability, T/C: 5.47%
Second compound 0.3 µM, first compound 0.000949 µM
  viability, T/C: 5.71%
Second compound 0.3 µM, first compound 0.003 µM
  viability, T/C: 5.48%
Second compound 0.3 µM, first compound 0.00949 µM
  viability, T/C: 4.65%
Second compound 0.3 µM, first compound 0.03 µM
  viability, T/C: 4.88%
Second compound 0.3 µM, first compound 0.0949 µM
  viability, T/C: 4.85%
Second compound 0.3 µM, first compound 0.3 µM
  viability, T/C: 4.54%

## C[C@@H](NC(=O)c1ncnc(N)c1Cl)c1ncc(C(=O)Nc2cc(C(F)(F)F)c(Cl)cn2)s1 + C#Cc1c(F)ccc2cc(O)cc(-c3ncc4c(N5CC6CCC(C5)N6)nc(OCC56CCCN5CC(F)C6)nc4c3F)c12
Second compound 0.0316 µM
  IC50: 9760 nM
Second compound 0.1 µM
  IC50: 4170 nM
Second compound 0.316 µM
  IC50: < 31.6 nM
Second compound 1 µM
  IC50: < 31.6 nM
Second compound 3.16 µM
  IC50: < 31.6 nM
Second compound 10 µM
  IC50: < 31.6 nM
[1]
  viability, T/C: 104%
[2]
  viability, T/C: 98.5%
[3]
  viability, T/C: 90.6%
[4]
  viability, T/C: 91.7%
Second compound 0.0316 µM, first compound 3.16 µM
  viability, T/C: 76.1%
Second compound 0.0316 µM, first compound 10 µM
  viability, T/C: 48.8%
[5]
  viability, T/C: 77.2%
[6]
  viability, T/C: 69.5%
[7]
  viability, T/C: 62.1%
[8]
  viability, T/C: 61.3%
Second compound 0.1 µM, first compound 3.16 µM
  viability, T/C: 60.8%
Second compound 0.1 µM, first compound 10 µM
  viability, T/C: 26.7%
[9]
  viability, T/C: 36.3%
[10]
  viability, T/C: 49.8%
[11]
  viability, T/C: 38.5%
[12]
  viability, T/C: 36%
Second compound 0.316 µM, first compound 3.16 µM
  viability, T/C: 23.7%
Second compound 0.316 µM, first compound 10 µM
  viability, T/C: 14.4%
[13]
  viability, T/C: 20.9%
[14]
  viability, T/C: 23.9%
[15]
  viability, T/C: 22.7%
[16]
  viability, T/C: 22.3%
Second compound 1 µM, first compound 3.16 µM
  viability, T/C: 18.8%
Second compound 1 µM, first compound 10 µM
  viability, T/C: 11.1%
[17]
  viability, T/C: 15.4%
[18]
  viability, T/C: 17.6%
[19]
  viability, T/C: 15.1%
[20]
  viability, T/C: 15.4%
Second compound 3.16 µM, first compound 3.16 µM
  viability, T/C: 10.9%
Second compound 3.16 µM, first compound 10 µM
  viability, T/C: 8.51%
[21]
  viability, T/C: 9.89%
[22]
  viability, T/C: 10.8%
[23]
  viability, T/C: 14%
[24]
  viability, T/C: 12.8%
Second compound 10 µM, first compound 3.16 µM
  viability, T/C: 8%
Second compound 10 µM, first compound 10 µM
  viability, T/C: 8.5%

## C=CC(=O)N1CCN(c2nc(OCC3CCCN3C)nc3c(F)c(-c4nc(N)cc(C)c4C(F)(F)F)c(Cl)cc23)C(C)C1 (stereo unspecified) + C#Cc1c(F)ccc2cc(O)cc(-c3ncc4c(N5CC6CCC(C5)N6)nc(OCC56CCCN5CC(F)C6)nc4c3F)c12
Second compound 0.0316 µM
  IC50: > 1000 nM
Second compound 0.1 µM
  IC50: 325 nM
Second compound 0.316 µM
  IC50: < 3.16 nM
Second compound 1 µM
  IC50: < 3.16 nM
Second compound 3.16 µM
  IC50: < 3.16 nM
Second compound 10 µM
  IC50: < 3.16 nM
Second compound 0.0316 µM, first compound 0.00316 µM
  viability, T/C: 75.1%
Second compound 0.0316 µM, first compound 0.01 µM
  viability, T/C: 97.6%
[1]
  viability, T/C: 84.3%
[2]
  viability, T/C: 78.3%
[3]
  viability, T/C: 79.5%
[4]
  viability, T/C: 54.6%
Second compound 0.1 µM, first compound 0.00316 µM
  viability, T/C: 69.6%
Second compound 0.1 µM, first compound 0.01 µM
  viability, T/C: 73.7%
[5]
  viability, T/C: 60.4%
[6]
  viability, T/C: 58.4%
[7]
  viability, T/C: 53.1%
[8]
  viability, T/C: 35.8%
Second compound 0.316 µM, first compound 0.00316 µM
  viability, T/C: 24.2%
Second compound 0.316 µM, first compound 0.01 µM
  viability, T/C: 35.7%
[9]
  viability, T/C: 37.8%
[10]
  viability, T/C: 25.2%
[11]
  viability, T/C: 33.2%
[12]
  viability, T/C: 24.2%
Second compound 1 µM, first compound 0.00316 µM
  viability, T/C: 18.1%
Second compound 1 µM, first compound 0.01 µM
  viability, T/C: 19.1%
[13]
  viability, T/C: 19.1%
[14]
  viability, T/C: 18.6%
[15]
  viability, T/C: 19%
[16]
  viability, T/C: 15.5%
Second compound 3.16 µM, first compound 0.00316 µM
  viability, T/C: 9.97%
Second compound 3.16 µM, first compound 0.01 µM
  viability, T/C: 14.1%
[17]
  viability, T/C: 12.5%
[18]
  viability, T/C: 13.3%
[19]
  viability, T/C: 15.5%
[20]
  viability, T/C: 10.9%
Second compound 10 µM, first compound 0.00316 µM
  viability, T/C: 8.29%
Second compound 10 µM, first compound 0.01 µM
  viability, T/C: 9.21%
[21]
  viability, T/C: 11.5%
[22]
  viability, T/C: 11%
[23]
  viability, T/C: 11.3%
[24]
  viability, T/C: 8.56%
